Measurements from patent publication US9000034B2, “Antibiotic composition containing erythorbyl laurate and its usage” (SNU R&DB Foundation, priority 2012, dated 2015).

What was measured:
[1] = test system: Escherichia coli O157:H7 (ATCC 35150); experiment: Test for bacterial proliferation inhibitory effects (absorbance at 600 nm); format: cell-based; conditions: 37° C., 22 hours; FIG. 5
[2] = test system: Salmonella typhimurium (ATCC 19586); experiment: as above; conditions: 37° C., 22 hours; FIG. 5
[3] = test system: Escherichia coli O157:H7 (ATCC 35150); experiment: Test for apoptotic effects (viable colony count on selective media); format: cell-based; conditions: compared with erythorbic acid and lauric acid; FIG. 4
Protocol: (§1) Apoptotic effects of erythorbic acid, lauric acid, and erythorbyl laurate, which is a […] product of erythorbic acid and lauric acid and a material of interest in this experiment, on two kinds of Gram-negative bacteria and two kinds of Gram-positive bacteria were evaluated.
(§2) As selective media for antibiosis test, sorbitol MacConkey agar (SMAC) (available from Difco), Xylose Lysine Desoxycholate agar (XLD) (available from Difco), Oxford agar base with Bacto™ Oxford antimicrobial supplement (MOX) (available from Difco), and Baird-Parker Agar Base (BPA) (available from Difco) were used.
(§3) As bacterial strains, Escherichia coli O157:H7 (ATCC 35150), Salmonella typhimurium (ATCC 19586), Listeria monocytogenes (ATCC 19114), and Staphylococcus aureus (ATCC 27213) were prepared. Each of the bacterial strains was cultured in tryptic soy broth (Difco, Becton Dickinson, Sparks, Md., USA) for 24 hours at 37° C., centrifuged at 4000×g for 20 minutes at 4° C., and purified with buffered peptone water (BPW) (available from Difco). Each strain was prepared in the form of a bacterial suspension (10^6 CFU/ml).
(§4) For this experiment, first, 10 ml of erythorbic acid, 10 ml of lauric acid, and 10 ml of erythorbyl laurate were added to 0.1 ml of each bacterial suspension. The resulting solution was satisfactorily mixed using a vortex mixer for minutes. Thereafter, 1 ml of the resultant solution obtained by mixing each bacterial suspension and test compounds was mixed with 9 ml of sterilized peptone water. Then, the resulting mixture was diluted 1:10 using sterilized peptone water. 0.1 ml of the diluted solution was collected and plated on the selective media. The plated media were incubated at 37° C. for 24 hours, and then colonies grown in each plate were measured in log10 CFU/ml.

[4] = test system: Listeria monocytogenes (ATCC 19114); experiment: as above; format: cell-based
Protocol: as §1, §2, §3, §4

[5] = test system: Salmonella typhimurium (ATCC 19586); experiment: as above; format: cell-based; conditions: compared with erythorbic acid and lauric acid; FIG. 4
Protocol: as §1, §2, §3, §4

[6] = test system: Staphylococcus aureus (ATCC 27213); experiment: as above; format: cell-based
Protocol: as §1, §2, §3, §4

[7] = test system: Staphylococcus aureus; experiment: Test for bacterial proliferation inhibitory effects (absorbance at 600 nm); format: cell-based
Protocol: Meanwhile, as a result of examination of proliferation inhibition data of Staphylococcus aureus, a portion where an exponential phase of the bacteria starts was remarkably shown unlike Listeria monocytogenes. Thus, the concentration of erythorbyl laurate was further decreased and a growth curve of the bacteria was measured.

[8] = test system: human intestinal epithelial cells INT-407
[9] = test system: human intestinal epithelial cells INT-407; experiment: Cytotoxicity test (MTT assay, cell viability); conditions: FIG. 7
[10] = test system: Listeria monocytogenes; experiment: Test for bacterial proliferation inhibitory effects (absorbance at 600 nm); conditions: 37° C., 22 hours; FIG. 5

Row | Structure (SMILES) | bacterial proliferation inhibitory effects [1] | bacterial proliferation inhibitory effects [2] | apoptotic effects [3] | apoptotic effects ([4]; FIG. 4) | viable cell count ([4]; above concentrations of 200 ppm) [CFU/ml] | apoptotic effects according to the concentration ([4]; up to 200 ppm) | apoptotic effects [5] | apoptotic effects ([6]; FIG. 4) | apoptotic effects according to the concentration ([6]; at a concentration of 200 ppm or higher) | bacterial proliferation inhibitory effects ([7]; 37° C., 22 hours, FIG. 5) | growth curve of the bacteria as the concentration decreased ([7]; decreasing concentration of erythorbyl laurate, FIG. 6) | cytotoxicity [8] | cell viability compared with erythorbic acid ([9]; 50 μM and 200 μM) | cell viability compared with ascorbyl palmitate ([9]; all the concentrations) | bacterial proliferation inhibitory effects [10]
1 | O=C1O[C@H]([C@H](O)CO)C(O)=C1O [erythorbic acid] | insignificant bacterial proliferation inhibitory effects | insignificant bacterial proliferation inhibitory effects |  |  |  |  |  |  |  |  |  |  |  |  | 
2 | CCCCCCCCCCCC(=O)OC[C@@H](O)[C@H]1OC(=O)C(O)=C1O [erythorbyl laurate] | insignificant bacterial proliferation inhibitory effects | insignificant bacterial proliferation inhibitory effects | insignificant | excellent apoptotic effects | 0.48 | apoptotic effects were increased in proportion to increase in the concentration | insignificant | excellent apoptotic effects | continuous apoptotic effects | effective bacterial proliferation inhibitory effects | an induction phase decreased and the exponential phase was observed earlier | no cytotoxicity | cell viability similar to that when erythorbic acid was used | higher cell viability | effective bacterial proliferation inhibitory effects
3 | CCCCCCCCCCCC(=O)O [lauric acid] | insignificant bacterial proliferation inhibitory effects | insignificant bacterial proliferation inhibitory effects |  |  |  |  |  |  |  |  |  |  |  |  | 
